This note sets out measurements from patent publication US10519098B2, “Aromatic derivatives as anti-malarial” (Council of Scientific & Industrial Research, priority 2014, dated 2019).

pIC50: −log10 of the molar value. Read-outs that look alike come from different tables or passages of the source. Bounds are passed on as bounds.

In series [1] the test system is Chloroquine-sensitive (3D7) strain of P. falciparum. Briefly: Malaria SYBR Green I-based fluorescence (MSF) assay, 3D7 strain. As to conditions: Plasmodium falciparum. The class given is cell-based. As for the experimental part:
(§1) The stock (5 mg/mL or 10 mM) solutions of extracts were prepared in DMSO and required dilutions were made in culture medium.
(§2) Two-fold serial dilutions of test samples were made in 96 well plates and incubated with 1.0% parasitized cell suspension containing 0.8% parasitaemia (Asynchronous culture with more than 80% ring stages). The plates were incubated at 37° C. in CO2 incubator in an atmosphere of 5% CO2 and air mixture. 72 hours later 100 μL of lysis buffer containing 2× concentration of SYBR Green-I (Invitrogen) was added to each well and incubated for one hour at 37° C. The plates were examined at 485±20 nm of excitation and 530±20 nm of emission for relative fluorescence units (RFUs) per well using the fluorescence plate reader (FLX800, BIOTEK). IC50 values were obtained by Logit regression analysis of dose response curves (Singh et al. 2011).

The test system of series [2] is Chloroquine-resistant (K1) strain of P. falciparum. As to the kind of experiment: Malaria SYBR Green I-based fluorescence (MSF) assay, K1 strain. Format: cell-based. Conditions: Plasmodium falciparum. As for the experimental part: as §1, §2
A short description of another series: in vitro. Conditions: monkey. As for the experimental part:
The cells were incubated with test sample dilutions for 72 h and MTT was used as reagent for detection of cytotoxicity. Podophyllotoxin (SIGMA) was used as the standard reference drug.

Where [3] appears, read: 3D7, range given for listed compounds, read-out: IC50 values against 3D7 culture.
The mark [4] stands for this setting: P. falciparum 3D7, 72 hours incubation, read-out: IC50 against 3D7.
Where [5] appears, read: K1, range given for listed compounds, read-out: IC50 values against K1 culture.
The mark [6] stands for this setting: P. falciparum K1, 72 hours incubation, read-out: IC50 against K1.

As a reminder, the pIC50 is −log10 of the IC50, conventionally taken in molar units. The term melting point denotes the temperature of the solid-liquid transition.

The compound `COc1cc(/C=C/C(=O)OC[C@@H](OC(=O)/C=C/c2cc(OC)c(OC)c(OC)c2)c2cc(OC)c(OC)c(OC)c2)cc(OC)c1OC` [Compound 57, (S)-1-(3,4,5-trimethoxyphenyl)ethane-1,2-diyl(2E,2′E)-bis(3-(3,4,5-trimethoxyphenyl)acrylate)] had a melting point of 61 to 62 °C. For the same compound, in series [1] (setting [3]), the negative-log IC50 (pIC50) was 5.15 to 5.70. Further, the pIC50 in series [1] (setting [4]) is 5.20. In series [2] (setting [5]), the pIC50 was 5.40 to 5.82. In addition, in series [2] (setting [6]), the pIC50 was 5.65. In “in vitro”, this compound showed a CC50 at 72 h of 47.4 µM.
In turn, `O=C(/C=C/c1ccccc1)NC[C@@H](OC(=O)/C=C/c1ccccc1)c1ccccc1` [Compound 25, (S)-2-cinnamamido-1-phenylethyl cinnamate] gave a melting point of 181 to 183 °C. The pIC50 in series [1] (setting [4]) is 5.41. Besides, the pIC50 in series [2] (setting [6]) is below 5.00. For the same compound, in the series “in vitro”, the CC50 at 72 h amounted to 31.7 µM.
Take `COc1ccc([C@@H](COC(=O)/C=C/c2ccccc2)NC(=O)/C=C/c2ccccc2)cc1OC` [Compound 55, (S)-2-cinnamamido-2-(3,4-dimethoxyphenyl)ethyl cinnamate]: the melting point lay within 117 to 120 °C. In addition, the pIC50 in series [1] (setting [4]) is below 5.00. Also, the pIC50 in series [2] (setting [6]) was below 5.00. In the series “in vitro”, the CC50 at 72 h amounted to 55.6 µM.
In the case of `COc1cc([C@@H](CNC(=O)/C=C/c2ccccc2)OC(=O)/C=C/c2ccccc2)cc(OC)c1OC` [Compound 5, (S)-2-cinnamamido-1-(3,4,5-trimethoxyphenyl)ethyl cinnamate], the melting point fell in the range of 126 to 128 °C. Further, the negative logarithm of the IC50 (pIC50) in series [1] (setting [3]) was 5.15 to 5.70. Moreover, the pIC50 in series [1] (setting [4]) was 5.17. Further, the pIC50 in series [2] (setting [5]) was 5.40 to 5.82. Besides, in series [2] (setting [6]), the pIC50 was 5.44. The compound also came in with a CC50 at 72 h in the series “in vitro” of 66.7 µM.
On to `COc1cccc([C@H](CNC(=O)/C=C/c2ccccc2)OC(=O)/C=C/c2ccccc2)c1OC` [Compound 22, (R)-2-cinnamamido-1-(2,3-dimethoxyphenyl)ethyl cinnamate], for which the melting point lay within 105 to 107 °C. The pIC50 in series [1] (setting [4]) is below 5.30. For the same compound, the pIC50 in series [2] (setting [6]) is below 5.30. Moreover, the CC50 at 72 h in “in vitro” was determined as 194 µM.
For the compound `COc1ccccc1[C@@H](CNC(=O)/C=C/c1ccccc1)OC(=O)/C=C/c1ccccc1` [Compound 9, (S)-2-cinnamamido-1-(2-methoxyphenyl)ethyl cinnamate], the melting point was 112 to 114 °C. For the same compound, the negative-log IC50 (pIC50) in series [1] (setting [4]) was below 5.30. Further, the pIC50 in series [2] (setting [6]) is below 5.30. The compound further registered a CC50 at 72 h in the series “in vitro” of 77.8 µM.
The compound `COc1ccc([C@@H](COC(=O)/C=C/c2ccccc2)OC(=O)/C=C/c2ccccc2)cc1` [Compound 19, (S)-1-(4-methoxyphenyl)ethane-1,2-diyl (2E,2′E)-bis(3-phenylacrylate)] showed a melting point of 93 to 96 °C. Besides, the pIC50 in series [1] (setting [4]) was below 5.30. In the series “in vitro”, this compound yielded a CC50 at 72 h of 33.5 µM.
Regarding `Cc1ccc([C@@H](CNC(=O)/C=C/c2ccccc2)OC(=O)/C=C/c2ccccc2)cc1` [Compound 29, (S)-2-cinnamamido-1-(p-tolyl) ethyl cinnamate], the melting point was 139 to 140 °C. Moreover, the pIC50 in series [1] (setting [4]) was 5.17. The negative logarithm of the IC50 (pIC50) in series [2] (setting [6]) is below 5.00. Moreover, the CC50 at 72 h in “in vitro” was determined as 141 µM.
The compound `COc1cccc([C@H](COC(=O)/C=C/c2ccccc2)OC(=O)/C=C/c2ccccc2)c1` [Compound 16, (R)-1-(3-methoxyphenyl)ethane-1,2-diyl (2E,2′E)-bis(3-phenylacrylate)] returned a melting point of 67 to 69 °C. Besides, the pIC50 in series [1] (setting [4]) is below 5.30. Further, the CC50 at 72 h in “in vitro” turned out to be 22.3 µM.
In the same order, the values of `O=C(/C=C/c1ccccc1)OC[C@@H](OC(=O)/C=C/c1ccccc1)c1ccccc1` [Compound 27, (S)-1-phenylethane-1,2-diyl (2E,2′E)-bis(3-phenylacrylate)] are 131 to 133 °C, below 5.30 and 39.1 µM.
In the case of `O=C(/C=C/c1ccccc1)NC[C@H](OC(=O)/C=C/c1ccccc1)c1ccccc1` [Compound 26, (R)-2-cinnamamido-1-phenylethyl cinnamate], the melting point lay in the range of 183 to 185 °C. In addition, in series [1] (setting [4]), the pIC50 is 5.33. For the same compound, the pIC50 in series [2] (setting [6]) was below 5.00. In “in vitro”, this compound came in with a CC50 at 72 h of 63.9 µM.
In the same order, the values of `Cc1ccc([C@@H](COC(=O)/C=C/c2ccccc2)OC(=O)/C=C/c2ccccc2)cc1` [Compound 31, (S)-1-(p-tolyl) ethane-1,2-diyl (2E,2′E)-bis(3-phenylacrylate)] are 103 to 105 °C, below 5.30, below 5.30 and above 200 µM.
Consider `COc1cccc([C@@H](CNC(=O)/C=C/c2ccccc2)OC(=O)/C=C/c2ccccc2)c1` [Compound 13, (S)-2-cinnamamido-1-(3-methoxyphenyl)ethyl cinnamate], for which the melting point fell in the range of 139 to 141 °C. In addition, the negative logarithm of the IC50 (pIC50) in series [1] (setting [4]) was below 5.30. In the series “in vitro”, the CC50 at 72 h was 148 µM.
`COc1ccc([C@H](COC(=O)/C=C/c2ccccc2)OC(=O)/C=C/c2ccccc2)cc1` [Compound 20, (R)-1-(4-methoxyphenyl)ethane-1,2-diyl (2E,2′E)-bis(3-phenylacrylate)] registered a melting point of 76 to 79 °C. In addition, the pIC50 in series [1] (setting [4]) was below 5.30. The compound also displayed a CC50 at 72 h in the series “in vitro” of 23.3 µM.
Compound `COc1cccc([C@H](CNC(=O)/C=C/c2ccccc2)OC(=O)/C=C/c2ccccc2)c1` [Compound 14, (R)-2-cinnamamido-1-(3-methoxyphenyl)ethyl cinnamate] gave a melting point of 138 to 140 °C. The pIC50 in series [1] (setting [4]) was below 5.30. Further, the CC50 at 72 h in the series “in vitro” worked out at 62.7 µM.
The matching figures for `COc1ccc([C@H](CNC(=O)/C=C/c2ccccc2)OC(=O)/C=C/c2ccccc2)cc1OC` [Compound 2, (R)-2-cinnamamido-1-(3,4-dimethoxyphenyl)ethyl cinnamate]: 123 to 125 °C, below 5.30 and 66.7 µM.
On to `COc1ccccc1[C@H](CNC(=O)/C=C/c1ccccc1)OC(=O)/C=C/c1ccccc1` [Compound 10, (R)-2-cinnamamido-1-(2-methoxyphenyl)ethyl cinnamate], for which the melting point is 112 to 114 °C. Moreover, in series [1] (setting [4]), the pIC50 is below 5.30. In “in vitro”, the CC50 at 72 h worked out at 117 µM.
Consider `COc1cccc([C@@H](CNC(=O)/C=C/c2ccccc2)OC(=O)/C=C/c2ccccc2)c1OC` [Compound 21, (S)-2-cinnamamido-1-(2,3-dimethoxyphenyl)ethyl cinnamate], for which the melting point lay within 105 to 108 °C. For the same compound, the pIC50 in series [1] (setting [4]) was below 5.30. In addition, in “in vitro”, the CC50 at 72 h is above 200 µM.
Regarding `Cc1ccc([C@H](COC(=O)/C=C/c2ccccc2)OC(=O)/C=C/c2ccccc2)cc1` [Compound 32, (R)-1-(p-tolyl) ethane-1,2-diyl (2E,2′E)-bis(3-phenylacrylate)], the melting point is 103 to 105 °C. For the same compound, the pIC50 in series [1] (setting [4]) is below 5.30. This compound showed a CC50 at 72 h in the series “in vitro” above 200 µM.
The matching figures for `O=C(/C=C/c1ccccc1)OC[C@@H](OC(=O)/C=C/c1ccccc1)c1ccc2c(c1)OCO2` [Compound 35, (S)-1-(benzo[d][1,3]dioxol-5-yl)ethane-1,2-diyl(2E,2′E)-bis(3-phenyl acrylate)]: 106 to 107 °C, below 5.30 and 31.8 µM.
